Experimental data from PMC4341984 (Biochemistry, 2014).

Molecular target: T1, UPPSBf (undecaprenyl pyrophosphate synthase) (Bacteroides fragilis, UniProt Q5LI17)
T1 sequence (Q5LI17 1-244): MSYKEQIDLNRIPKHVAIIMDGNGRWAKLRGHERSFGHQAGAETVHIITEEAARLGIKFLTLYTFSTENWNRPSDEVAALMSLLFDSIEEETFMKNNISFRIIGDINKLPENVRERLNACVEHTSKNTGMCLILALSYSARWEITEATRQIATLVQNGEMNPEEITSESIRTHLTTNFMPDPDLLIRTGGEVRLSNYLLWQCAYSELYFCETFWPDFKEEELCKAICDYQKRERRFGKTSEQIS
Assay: fluorescence plate assay, inhibition of […] 2AA-GPP elongation
Format: biochemical

- IC50: 1000 ± 200 µM
Compound: O=P(O)(O)OP(=O)(O)O [diphosphate]
